Measurements as given in patent US20250041307A1, “Uses of Bicyclic Compounds for the Treatment of Diseases” (Athira Pharma, Inc., priority 2021, published 2025).

Assays:
MDCK cells = experiment: Cell scattering behavior assay; assay type: cell-based; parameters: key: − indicates that the compound failed to significantly promote cell scattering behavior; + indicates maximum potency at or above 100 nM; ++ indicates maximum potency at or above 10 nM; +++ indicates maximum potency at or above 1 nM; ++++ indicates maximum potency at or above 0.1 nM; conditions: with 5 ng/mL HGF, 24 hours, normalized particle count compared to HGF treatment alone
Procedure: MDCK cells were grown under normal conditions and observed to spontaneously form tight colonies as they proliferate. MDCK cells respond to HGF treatment by moving away from each other (scattering), which is quantified to assess the amount of HGF/MET activation in the cell population. In this experiment, MDCK cells were plated in a 96-well format, treated with HGF and exemplary compounds, fluorescently stained, imaged in large fields, and scattering behavior was quantified. Quantification was determined by analyzing the number of continuous groups of cells compared to the total stained area imaged (normalized particle counts).
MDCK cells were plated at low density in black-walled imaging plates and allowed to attach overnight at 37° C. and 5% CO2 in DMEM+10% FBS. Cells were then starved to 2 hours in DMEM without FBS (“starve media”). Samples containing exemplary compounds were prepared in DMEM without FBS and included 5 ng/mL HGF protein (“treatment media”). A control curve was also prepared for each plate using HGF concentrations of 0, 5, 10, and 20 ng/mL. Starve media was replaced with treatment media and cells were incubated for 24 hours at 37° C. and 5% CO2.
After incubation, cells were fixed by replacing treatment media with cold ethanol and incubating for 20 minutes at 4° C. Cells were then rehydrated by washing with PBS and then with stain solution (fluorescent wheat germ agglutinin; WGA488 at 20 μg/mL in PBS). Cells were incubated with stain solution 30 minutes at room temperature after which stain solution was replaced with fresh PBS.
Fields of cells were imaged using an iCyte high content imager in the green wavelength. Images were converted to binary and analyzed for particle size and particle count. For the purpose of analysis, an individual cell touching no other cells or separated colonies of cells were identified as particles, and particle counts were normalized by the total signal area to account for differences in cell number. […] Compound potency was assessed by statistical increase in normalized particle count compared to HGF treatment alone.

[1] = Parallel artificial membrane permeability assay (PAMPA); assay type: in vitro ADME; conditions: PBS, room temperature for 5 hours, 200 uM in donor well
Procedure: Bioavailable drugs must permeate the cellular membranes of the lining of the digestive tract. To estimate the penetrability of exemplary compounds, the in vitro parallel artificial membrane permeability assay (PAMPA) was utilized.
Test compounds must have a standard curve in the final read plate to determine partitioned concentration of each drug. A 6-point standard curve was prepared for each compound from 0 to 200 μM in phosphate-buffered saline (PBS).
Test compound solution (300 μL in PBS) was added to the donor (bottom) well of the PAMPA plate in 5 replicates and PBS vehicle (200 μL) was added to the acceptor (top) wells of appropriate wells to match the loading of the donor plate. The bottom and top of the PAMPA plates were then sandwiched together. The PAMPA plates were then incubated at room temperature for 5 hours. After incubation, 150 μL of donor solution was added to a UV compatible plate containing the corresponding standard curve. 150 μL of acceptor well solution was added adjacent to the corresponding standard curve and donor well samples for that compound. The plate was then read using a UV plate reader.
Permeability and membrane retention were then calculated based on the following formulas:
where: • A=filter area (0.3 cm^2); • VD=donor well volume (0.3 mL); • VA=acceptor well volume (0.2 mL); • t=incubation time (seconds); • CA(t)=compound concentration in acceptor well at time t; • CD(t)=compound concentration in donor well at time t; and
where: • CD(t), VD, CA(t), and VA are as defined for equation 1, and • C0=initial concentration in donor well (200 uM).

[2] = Turbidimetric solubility assay; assay type: physicochemical; conditions: PBS (diluted from 10 mM DMSO stock), aqueous buffer, kinetic from dmso stock, 37° C. for 2 hours, dilution series 3 to 300 μM
Procedure: Aqueous solubility is a critical drug property that helps to predict bioavailability. Generally, compounds with aqueous solubility <100 μg/ml are poor drugs.
To assess a compound's solubility by turbidity, test compounds were first dissolved in organic solvent (DMSO) at a concentration of 10 mM. This compound solution was then diluted in aqueous solvent (PBS) in a dilution series from 3 to 300 μM in a 96-well assay plate. Solutions were incubated at 37° C. for 2 hours.
In wells with test compounds over their solubility limit, the compound will precipitate, effectively blocking the passage of light and thus increasing the absorbance signal of UV light at a wavelength of 620 nm. Compounds were considered insoluble at a tested concentration if turbidity raises the absorbance more than 10% above control reads.

HGF/MET system = experiment: Phospho-MET ELISA; assay type: cell-based; parameters: key: − indicates that the compound failed to significantly augment MET phosphorylation; + indicates maximum potency at or above 100 nM; ++ indicates maximum potency at or above 10 nM; +++ indicates maximum potency at or above 1 nM; ++++ indicates maximum potency at or above 0.1 nM; conditions: HEK293 cells; with 1 ng/mL recombinant HGF; 15 minutes; augmentation of MET phosphorylation (pMET ELISA)
Procedure: Compounds were screened for potency towards the HGF/MET system using phospho-MET (pMET) ELISA kits (Cell Signaling). pMET levels were detected in samples having low (1 ng/mL) and high (10 ng/mL) concentrations of HGF.
HEK293 cells were prepared by passage into 6-well multi-plates and grown at 37° C. at 5% CO2 in DMEM+10% FBS until approximately 90% confluent. Cells were then starved for at least 8 hours in serum-free growth media.
Exemplary compounds were prepared in DMEM+0.1% FBS, diluted and added to treatment media with 1 ng/mL recombinant HGF protein (R&D Systems). Cells were incubated in triplicate at 37° C. and 5% CO2 for 15 minutes. Samples were then treated with 180 μL ice-cold RIPA (radioimmunoprecipitation assay) buffer and cells were lysed on ice for 15 minutes. Lysates were cleared by centrifugation at 16,000-g for 15 minutes and the supernatant was retained. Samples were normalized using a BCA assay of lysates to determine protein concentrations across the samples.
Between 50 and 100 μg total protein lysate was loaded into ELISA wells in pMET Sandwich ELISA kit (Cell Signaling Catalog #7227C), ensuring equal protein load in each well. The ELISA was processed according to manufacturer's instructions. After color developed, absorbance was read on an optical plate reader at 450 nm.
Potency measurements were determined using peak efficacy by scaling test compound dose treatments along a scale of 1-10 between 1 ng/mL and 10 ng/mL HGF doses according to the following formula: […]
where y is the normalized data-point, x is the raw data point, A is the mean HGF at 1 ng/mL, and B is the mean HGF at 10 ng/mL.

[3] = tested on: hepatocyte (HepG2) cell cultures; experiment: Cytotoxicity assay (LDH release); assay type: cell-based; conditions: HepG2 cells, 48 hours, 0.1 to 100 μM
Procedure: This experiment was designed to obtain a preliminary assessment of cytotoxicity.
HepG2 cells were plated in 96-well cell culture plates and allowed to attach overnight at 37° C., 5% CO2 in EMEM+10% FBS. Treatments were made in complete media (EMEM+10% FBS) and included a dilution series of test compounds from 0.1 to 100 μM. Known cytotoxin cerivastatin was used as a positive assay control and prepared at a final concentration of 0.5 μM.
Growth media was replaced with treatment media (EMEM+10% FBS containing test compound dissolved in DMSO) and cells were incubated with test compounds for 48 hours. At the end of the incubation period, supernatant media from each well was transferred to a new plate and LDH assay working solution was added. LDH assay solution undergoes a colorimetric reaction in proportion to the amount of lactate dehydrogenase (an intracellular protein that was only found in the media in the presence of lysed cells) in the media. Color reaction was quantified by measurement of absorbance at a wavelength of 490 nm.
The signal range of the assay was determined by no manipulation in a negative control treatment and full lysis of all cells in a lysis control sample. Compounds that increase the level of cytotoxicity more than 20% above negative control samples were considered cytotoxic in this assay.

[4] = In vitro stability in simulated gastric and intestinal fluids; assay type: in vitro ADME; conditions: 37° C.
Procedure: (§1) Bioavailability can be estimated by compound stability when exposed to conditions in the body. As an initial assessment of stability properties in a variety of conditions present in animals, exemplary compounds were tested for stability in a battery of simulated body compartments. Compounds were tested for stability in the following solutions: simulated gastric fluid (SGF: 34.2 mM NaCl, pH 1.2), simulated gastric fluid with the digestive enzyme pepsin (SGF+Enzyme: SGF with 3.2 mg/ml pepsin), simulated intestinal fluid with the mixture of enzymes in porcine pancreatin (SIF+Enzyme: 28.7 mM NaH2PO4, 105.7 mM NaCl, pH 6.8, 10 mg/ml pancreatin), rat plasma, and human plasma.
(§2) Test compounds were incubated at a final concentration of 5 μM in the above solutions at 37° C. with samples removed at the following time points: 0, 1, 2, and 4 hours. Reactions were stopped and prepared for quantification by addition of excess quench solution containing an internal standard (acetonitrile, 200 ng/mL bucetin). Test compound and internal standard in each sample was quantified by LC-MS/MS, and after internal normalization to bucetin, test compound concentration was expressed as a percentage of concentration at the 0-hour time point. Stability in the relevant test solution was then determined by the percent remaining at the 4-hour time point.

[5] = In vitro stability in human plasma; assay type: in vitro ADME; conditions: 5 μM, 37° C.
Procedure: as §1, §2

[6] = In vitro stability in rat plasma; assay type: in vitro ADME; conditions: 5 μM, 37° C.
Procedure: as §1, §2

[7] = In vivo tissue distribution; parameters: species or system Sprague-dawley rats; conditions: rat, 10 minutes post administration
Procedure: The rate of distribution to target tissues is an important feature of therapeutic molecules. Tissue distribution of exemplary compounds was performed in mixed-sex Sprague-dawley rats. Test compounds were delivered via tail vein injection (IV) and tissues were collected at Tmax (10 minutes post administration). Animals were deeply anesthetized with isoflurane and whole blood was collected from the right atrium and processed by centrifugation to produce plasma. Animals were then fully perfused with PBS administered to the left ventricle to prevent blood contamination of tissues.
Tissues were collected and homogenized, and compound content in the target tissue was quantified by LC-MS/MS. Tissue distribution rates were determined by dividing the tissue concentration of compound by the plasma concentration and multiplying by 100.

Papp at 5 h, 200 uM [1] [×10⁻⁶ cm/s]	solubility at 2 h [2] [µM]	Compound	Potency (MDCK cells)	Potency (HGF/MET system)	Cytotoxicity [3]	other results
< 2	> 300	CCC(C)CN1CC2N(Cc3ccc(O)cc3)CCC(=O)N2[C@@H](C)C1=O (some centres unmarked) [Compound 3a]	−	−		
< 2		CCC(C)CN1CC2N(Cc3ccc(OC(F)F)cc3)CCC(=O)N2C(CC(C)C)C1=O (centres unmarked) [Compound 53, 1-(4-(difluoromethoxy)benzyl)-6-isobutyl-8-(2-methylbutyl)hexahydro-4H-pyrazino[1,2-a]pyrimidine-4,7(6H)-dione]	+++ (+++ indicates maximum potency at or above 1 nM)	++ (++ indicates maximum potency at or above 10 nM)	+++ (+++ indicates non-toxic at 10 μM)	

More lines, now with the values behind:

Compound	Papp at 5 h, 200 uM [1] [×10⁻⁶ cm/s]	solubility at 2 h [2] [µM]	Potency (MDCK cells)	Potency (HGF/MET system)	Cytotoxicity [3]	other results
CC1C(=O)N(CC2CCC2)CC2N(C(=O)c3ccc(OC(F)F)cc3)CCC(=O)N12 (centres unmarked) [Compound 14]	> 2			++++ (++++ indicates maximum potency at or above 0.1 nM)	++++ (++++ indicates non-toxic at 100 μM)	SGF, compound remaining after 4 hours ([4]; simulated gastric fluid pH 1.2, 5 μM): ++ (++ indicates 40-79% compound remaining after 4 hours); SGF + Enz, compound remaining after 4 hours ([4]; simulated gastric fluid with 3.2 mg/ml pepsin, 5 μM): ++ (++ indicates 40-79% compound remaining after 4 hours); SIF, compound remaining after 4 hours ([4]; simulated intestinal fluid pH 6.8 with 10 mg/ml pancreatin, 5 μM): +++ (+++ indicates 80-99% compound remaining after 4 hours); Human Plasma, compound remaining after 4 hours [5]: +++ (+++ indicates 80-99% compound remaining after 4 hours); Rat Plasma, compound remaining after 4 hours [6]: +++ (+++ indicates 80-99% compound remaining after 4 hours); Tissue Distribution (% Plasma exposure at 10 min post IV dose) Brain ([7]; brain): ++ (++ indicates distribution between 5 and 39%); Tissue Distribution (% Plasma exposure at 10 min post IV dose) Cerebellum ([7]; cerebellum): ++ (++ indicates distribution between 5 and 39%); Tissue Distribution (% Plasma exposure at 10 min post IV dose) Cortex ([7]; cortex): ++ (++ indicates distribution between 5 and 39%); Tissue Distribution (% Plasma exposure at 10 min post IV dose) Hippocampus ([7]; hippocampus): ++ (++ indicates distribution between 5 and 39%); Tissue Distribution (% Plasma exposure at 10 min post IV dose) Sciatic Nerve ([7]; sciatic nerve): ++ (++ indicates distribution between 5 and 39%)
CC1C(=O)N(CCCC(F)(F)F)CC2N(Cc3ccc(OC(F)F)cc3)CCC(=O)N12 (centres unmarked) [Compound 37]		> 300		−		
CC1C(=O)N(CCC(F)(F)F)CC2N(Cc3ccc(OC(F)F)cc3)CCC(=O)N12 (centres unmarked) [Compound 52]		> 100		−		
CC1C(=O)N(CCC2CCCC2)CC2N(Cc3ccc(C(F)(F)F)c(Cl)c3)CCC(=O)N12 (centres unmarked) [Compound 54]	< 2		−	−	+++ (+++ indicates non-toxic at 10 μM)	
